These results are taken from patent US20120070411A1, “SUBSTITUTED NUCLEOTIDE ANALOGS” (Alios BioPharma, Inc., priority 2010, published 2012).

B1: IFN-Lambda 2 (protein, UniProt Q8IZJ0 26-200, looked up)
Interferon lambda-2: VPVARLHGALPDARGCHIAQFKSLSPQELQAFKRAKDALEESLLLKDCRCHSRLFPRTWDLRQLQVRERPMALEAELALTLKVLEATADTDPALVDVLDQPLHTLHHILSQFRACIQPQPTAGPRTRGRLHHWLYRLQEAPKKESPGCLEASVTFNLFRLLTRDLNCVASGDLCV
B2: IFN-Lambda 3 (protein, UniProt Q8IZI9 22-196, looked up)
Interferon lambda-3: B1 Interferon lambda-2 with H7R, R49K, H51R, M71V, V95G, F112L, Y135H
B3: IFN-Lambda 1 (protein, UniProt Q8IU54 20-200, looked up)
Interferon lambda-1: GPVPTSKPTTTGKGCHIGRFKSLSPQELASFKKARDALEESLKLKNWSCSSPVFPGNWDLRLLQVRERPVALEAELALTLKVLEAAAGPALEDVLDQPLHTLHHILSQLQACIQPQPTAGPRPRGRLHHWLHRLQEAPKKESAGCLEASVTFNLFRLLTRDLKYVADGNLCLRTSTHPEST

Numbering of substitutions follows the chain as printed.

The assay relates to HCV genotype 1b HCV replicon harbored in Huh7 cells. The assay is described as follows: Combination testing with compound A10 in HCV replicon (CalcuSyn CI and MacSynergy II synergy volume). It is filed as cell-based. The following applies: combination of compound A10 with the listed compound; MacSynergy II, Bliss independence; 25-100 synergistic, >100 strongly synergistic. Here is the method:
Two or more test compounds were tested in combination with each other using an HCV genotype 1b HCV replicon harbored in Huh7 cells with a stable luciferase (LUC) reporter. Cells were cultured under standard conditions in Dulbecco's modified Eagle's medium (DMEM; Mediatech Inc, Herndon, Va.) containing 10% heat-inactivated fetal bovine serum (FBS; Mediatech Inc, Herndon, Va.) 2 mM L-glutamine, and nonessential amino acids (JRH Biosciences). HCV replicon cells were plated in a 96-well plate at a density of 10^4 cells per well in DMEM with 10% FBS. […] The cells were incubated with no compound as a control, with the test compounds, or the combination of compounds for 72 h. The direct effects of the combination of the test compounds were examined using a luciferase (LUC) based reporter as determined by the Bright-Glo Luciferase Assay (Promega, Madison, Wis.). Dose-response curves were determined for individual compounds and fixed ratio combinations of two or more test compounds.
The effects of test compound combinations were evaluated by two separate methods. In the Loewe additivity model, the experimental replicon data was analyzed by using CalcuSyn (Biosoft, Ferguson, Mo.), a computer program based on the method of Chou and Talalay. The program uses the experimental data to calculate a combination index (CI) value for each experimental combination tested. A CI value of <1 indicates a synergistic effect, a CI value of 1 indicates an additive effect, and a CI value of >1 indicates an antagonistic effect.
The second method utilized for evaluating combination effects used a program called MacSynergy II. MacSynergy II software was kindly provided by Dr. M. Prichard (University of Michigan). The Prichard Model allows for a three-dimensional examination of drug interactions and a calculation of the synergy volume (units: μM^2%) generated from running the replicon assay using a checkerboard combination of two or more inhibitors. The volumes of synergy (positive volumes) or antagonism (negative volumes) represent the relative quantity of synergism or antagonism per change in the concentrations of the two drugs. Synergy and antagonism volumes are defined based on the Bliss independence model. In this model, synergy volumes of less than −25 indicate antagonistic interactions, volumes in the −25-25 range indicate additive behavior, volumes in the 25-100 range indicate synergistic behavior and volumes>100 indicate strong synergistic behavior.
As to `COc1ccc2c(O[C@@H]3C[C@H]4C(=O)N[C@]5(C(=O)O)C[C@H]5/C=C\CCCCC[C@H](NC(=O)OC5CCCC5)C(=O)N4C3)cc(-c3csc(NC(C)C)n3)nc2c1` [BILN-2061], the “Synergy Volume” value is 12 μM^2%.

`COC(=O)N[C@H](C(=O)N1CCC[C@H]1c1nc(-c2ccc(-c3ccc(-c4c[nH]c([C@@H]5CCCN5C(=O)[C@@H](NC(=O)OC)C(C)C)n4)cc3)cc2)c[nH]1)C(C)C` [BMS-790052]: the “Synergy Volume” value is listed as 25 μM^2%. Consider `CCc1cc(CC[C@]2(C3CCCC3)CC(O)=C(Cc3nc4nc(C)cc(C)n4n3)C(=O)O2)cc(CC)n1` [Filibuvir, FILIBUVIR], for which the “Synergy Volume” value is on record as 38 μM^2%.

`Fc1ccccc1-c1nc2ccn(Cc3ccc(-c4ccc(C(F)(F)F)cc4C(F)(F)F)nn3)cc-2n1` [GS-9190]: the “Synergy Volume” value was 112 μM^2%.

Regarding `CNC(=O)c1c(-c2ccc(F)cc2)oc2cc(N(CCO)S(C)(=O)=O)c(C3CC3)cc12` [HCV-796], the “Synergy Volume” value is given as 35 μM^2%. For `COc1nc(N)nc2c1ncn2[C@@H]1O[C@H](COP(=O)(N[C@@H](C)C(=O)OCC(C)(C)C)Oc2cccc3ccccc23)[C@@H](O)[C@@]1(C)O` (some centres unmarked) [INX-189] the value was 31 μM^2%; for `CC(C)(C)OC(=O)N[C@H]1CCCCC/C=C\[C@@H]2C[C@@]2(C(=O)NS(=O)(=O)C2CC2)NC(=O)[C@@H]2C[C@@H](OC(=O)N3Cc4cccc(F)c4C3)CN2C1=O` [ITMN-191, DANOPREVIR], 39 μM^2%. For the molecule `CCOc1nc(N)nc2c1ncn2[C@@H]1O[C@@H]2COP(=O)(OC(C)C)O[C@H]2[C@@]1(C)F` (some centres unmarked) [PSI-938], the “Synergy Volume” value is recorded as 36 μM^2%. For the molecule `C[C@@]1(F)[C@H](O)[C@@H](CO)O[C@H]1n1ccc(N)nc1=O` [PSI-6130], the “Synergy Volume” value was 21 μM^2%.

As to `CC(C)OC(=O)[C@H](C)NP(=O)(OC[C@H]1O[C@@H](n2ccc(=O)[nH]c2=O)[C@](C)(F)[C@@H]1O)Oc1ccccc1` (some centres unmarked) [PSI-7851], the “Synergy Volume” value was 14 μM^2%. For the molecule `NC(=O)c1ncn([C@@H]2O[C@H](CO)[C@@H](O)[C@H]2O)n1` [Ribavirin, ribavirin], the “Synergy Volume” value is on record as 0 μM^2%. As for `COc1ccc2c(O[C@@H]3C[C@H]4C(=O)N[C@]5(C(=O)NS(=O)(=O)C6CC6)C[C@H]5/C=C\CCCCN(C)C(=O)[C@@H]4C3)cc(-c3nc(C(C)C)cs3)nc2c1C` [TMC-435], the figure is 104 μM^2%. As to `CC(C)(C)C#Cc1cc(N(C(=O)[C@H]2CC[C@H](C)CC2)[C@H]2CC[C@H](O)CC2)c(C(=O)O)s1` [VX-222], the “Synergy Volume” value was 52 μM^2%. Regarding `CCC[C@H](NC(=O)[C@@H]1[C@H]2CCC[C@H]2CN1C(=O)[C@@H](NC(=O)[C@@H](NC(=O)c1cnccn1)C1CCCCC1)C(C)(C)C)C(=O)C(=O)NC1CC1` [VX-950, Telaprevir], the “Synergy Volume” value is reported as 34 μM^2%. In the case of B1, the “Synergy Volume” value is 31 μM^2%. As to B2, the “Synergy Volume” value is reported as 33 μM^2%.

As for B3, the “Synergy Volume” value is on record as 43 μM^2%.
